Measured values published in patent US5439887A, “Peptide having antihypertensive activity free of vascoconstrictor activity” (Roussel-Uclaf, priority 1992, dated 1995).
pIC50: −log10 of the molar value. Bridge positions count the residues as written; N and C are the ends. Peptide text beside a SMILES is read from it.

Biological target: endothelin receptor
Assay: [125I]endothelin displacement from rat posterior cortex plus cerebellum membranes
Type: binding
Settings: displacement of [125I]endothelin, rat brain membranes, 25° C., 60 minutes
Experimental: A membrane preparation was made from rat posterior cortex plus cerebellum and the tissue was ground using a POLYTRON in 50 mM Tris buffer pH 7.4. After 30 minutes at 25° C. (water bath), the homogenate was centrifuged at 30,000 g for 15 minutes (2 centrifugations interspersed by taking up in Tris buffer pH 7.4).
The pellets were resuspended in an incubation buffer (25 mM Tris, pepstatin A 5 μg/ml, aprotinin 3 μg/ml, 0.1 mM PMSF, 3 mM EDTA, 1 mM EGTA pH 7.4).
2 ml aliquots were distributed in haemolysis tubes and [125 I]endothelin (approximately 50,000 dpm/tube) and the test product were added. The product was first tested at […] in triplicate. When the test product displaced by more than 50% the radioactivity specifically bound to the receptor, it was tested again in a series of 7 concentrations to determine the concentration which inhibited by 50% the radioactivity specifically bound to the receptor. The 50% inhibitory concentration was thereby determined.
Non-specific binding was determined by adding 10^-6 M endothelin (in triplicate). The preparation was incubated at 25° C. for 60 minutes, put back on a water bath at 0° C. for 5 minutes, filtered off under reduced pressure and rinsed with […] Tris buffer pH 7.4, and the radioactivity was counted in the presence of Triton scintillant. The result was expressed directly as a 50% inhibitory concentration (IC50), that is to say as a concentration of test product, expressed in nM, required to displace 50% of the specific radioactivity bound to the receptor under study.

| pIC50 | Compound |
| --- | --- |
| 8.17 | CC[C@H](C)[C@H](NC(=O)[C@H](CC(=O)O)NC(=O)[C@H](CC(=O)O)NC(=O)[C@H](Cc1c[nH]cn1)NC(=O)[C@@H]1CSSC[C@H](N)C(=O)N[C@@H](CO)C(=O)N[C@H]2CSSC[C@H](NC(=O)[C@H](CCC(=O)O)NC(=O)[C@H](CCCCN)NC(=O)[C@H](CC(=O)O)NC(=O)[C@H](CC(C)C)NC(=O)[C@H](Cc3c[nH]c4ccccc34)NC(=O)[C@H](CO)NC(=O)[C@H](CC(N)=O)NC2=O)C(=O)N[C@@H](C(C)C)C(=O)N[C@@H](Cc2ccc(O)cc2)C(=O)N[C@@H](Cc2ccccc2)C(=O)N1)C(=O)N[C@H](C(=O)N[C@@H](Cc1c[nH]c2ccccc12)C(=O)O)[C@@H](C)CC [Example 12] (H-CSCNSWLDKECVYFCHDDIIW-OH; disulfide 1-15, 3-11) |
| 7.77 | CC[C@H](C)[C@H](NC(=O)[C@H](CC(=O)O)NC(=O)[C@H](CC(C)C)NC(=O)[C@H](Cc1c[nH]cn1)NC(=O)[C@@H]1CSSC[C@H](NC(=O)[C@@H](N)CO)C(=O)N[C@@H](Cc2ccccc2)C(=O)N[C@@H](CO)C(=O)N[C@@H](CO)C(=O)N[C@@H](CC(C)C)C(=O)N[C@@H](CC(=O)O)C(=O)N[C@@H](CCCCN)C(=O)N[C@@H](CCC(=O)O)C(=O)N[C@@H](C)C(=O)N[C@@H](C(C)C)C(=O)N[C@@H](Cc2ccc(O)cc2)C(=O)N[C@@H](Cc2ccccc2)C(=O)N1)C(=O)N[C@H](C(=O)N[C@@H](Cc1c[nH]c2ccccc12)C(=O)O)[C@@H](C)CC [Example 15] (H-SCFSSLDKEAVYFCHLDIIW-OH; disulfide 2-14) |
| 8.62 | CC[C@H](C)[C@H](NC(=O)[C@H](CC(=O)O)NC(=O)[C@H](CC(C)C)NC(=O)[C@H](Cc1c[nH]cn1)NC(=O)[C@@H]1CSSC[C@H](N)C(=O)N[C@@H](CO)C(=O)N[C@H]2CSSC[C@H](NC(=O)[C@H](CCC(=O)O)NC(=O)[C@H](CCCCN)NC(=O)[C@H](CC(=O)O)NC(=O)[C@H](CC(C)C)NC(=O)[C@H](CC(=O)O)NC(=O)[C@H](CO)NC(=O)[C@H](Cc3ccccc3)NC2=O)C(=O)N[C@@H](C(C)C)C(=O)N[C@@H](Cc2ccc(O)cc2)C(=O)N[C@@H](Cc2ccccc2)C(=O)N1)C(=O)N[C@H](C(=O)N[C@@H](Cc1c[nH]c2ccccc12)C(=O)O)[C@@H](C)CC [Example 9] (H-CSCFSDLDKECVYFCHLDIIW-OH; disulfide 1-15, 3-11) |
| 8.14 | CC[C@H](C)[C@H](NC(=O)[C@H](CC(=O)O)NC(=O)[C@H](CC(C)C)NC(=O)[C@H](Cc1c[nH]cn1)NC(=O)[C@@H]1CSSC[C@H](NC(=O)[C@@H](N)CO)C(=O)N[C@@H](CC(N)=O)C(=O)N[C@@H](CO)C(=O)N[C@@H](Cc2c[nH]c3ccccc23)C(=O)N[C@@H](CC(C)C)C(=O)N[C@@H](CC(=O)O)C(=O)N[C@@H](CCCCN)C(=O)N[C@@H](CCC(=O)O)C(=O)N[C@@H](C)C(=O)N[C@@H](C(C)C)C(=O)N[C@@H](Cc2ccc(O)cc2)C(=O)N[C@@H](Cc2ccccc2)C(=O)N1)C(=O)N[C@H](C(=O)N[C@@H](Cc1c[nH]c2ccccc12)C(=O)O)[C@@H](C)CC [Example 16] (H-SCNSWLDKEAVYFCHLDIIW-OH; disulfide 2-14) |
